These results are taken from US20090186853A1, “COMPOSITIONS COMPRISING N-PROPANOYL DERIVATIVES OF AMINO ACIDS, AMINOCARBOHYDRATES AND DERIVATIVES THEREOF” (priority 2005, published 2009).

The test system of assay [1] is itchy lesion due to atopic eczema. In words: Topical treatment of itch from atopic eczema in a human subject. The class given is in vivo. The note with it: 5% cream. The procedure: For subjective disorders such as pain, itch, or the like, the therapeutic effects were evaluated or judged by the subjects or patients. For example, the subjects evaluated whether the pain or itch had disappeared within hours or days. For other detectable symptoms or syndromes, the therapeutic effects or improvements were evaluated or judged by medical professionals. N-Propanoyl-D-glucosamine 5 g was dissolved in water 15 ml and propylene glycol 5 ml, and the solution thus obtained was mixed uniformly with hydrophilic ointment or oil-in-water emulsion 75 g. The cream thus formulated had pH 4.7 and contained 5% N-propanoyl-D-glucosamine. A subject, having an itchy lesion on their right foot due to atopic eczema, topically applied the above cream to the lesion. […] A human subject having itchy skin from atopic eczema topically applied 5% N-propanoyl-glucosamine cream to the lesion.

For assay [2], the system named is fine wrinkles (crow's feet). In words: Topical treatment of fine wrinkles (crow's feet) near the eyes. The class given is in vivo, human. The note with it: 5% cream of Example 7, topical twice daily, five weeks, person. The method, then:
For subjective disorders such as pain, itch, or the like, the therapeutic effects were evaluated or judged by the subjects or patients. For example, the subjects evaluated whether the pain or itch had disappeared within hours or days. For other detectable symptoms or syndromes, the therapeutic effects or improvements were evaluated or judged by medical professionals. A subject, applied topically twice daily 5% N-propanoyl-D-glucosamine cream as formulated in Example 7 to fine wrinkles (crow's feet) near the eyes for five weeks.

Assay [3] concerns forearm skin (aging / photoaging skin). In words: Forearm skin thickness measured by micrometer calipers after topical application. Format: in vivo, human. As to conditions: 10% solution twice daily; for appearance of treated forearm skin compared with untreated forearm: at end of treatment (6 to 9 weeks). The method, then:
Skin thickness was measured by micrometer calipers to study skin changes associated with aging as follows: The skin was grasped with a 2×6 cm metal hinge, the internal faces of that were coated with emery cloth to prevent slippage, and manually squeezed to threshold subject discomfort. Combined thickness of two whole-skin layers including thickness of the two hinge leaves was measured with micrometer calipers. Thickness of the two hinge leaves was subtracted to determine the actual thickness of two whole-skin layers. Triplicate measurements on treated sites were done and an average number was used for calculation of the skin thickness. N-Propanoyl-D-glucosamine 10 g was dissolved in 90 ml solution prepared from water 40 parts, ethanol 40 parts and propylene glycol 20 parts by volume. The formulation thus prepared had pH 6.0 and contained 10% N-propanoyl-D-glucosamine solution.

Take `CCC(=O)N[C@H]1C(O)O[C@H](CO)[C@@H](O)[C@@H]1O` (stereo partly drawn) [N-propanoyl-D-glucosamine, N-Propanoyl-D-glucosamine]: in assay [1] (single topical application to atopic eczema lesion), the “time skin remained free of itch” value is 12 h. Further, the “itch after topical application” value in assay [1] (topical to atopic eczema lesion, a few minutes after application) is given as “the itch disappeared completely”. Further, the change of wrinkles result in assay [2] was “wrinkles improved significantly”. Besides, the “appearance of treated forearm skin compared with untreated forearm” value in assay [3] was “firmer, smooth, plump and minimally wrinkled when lifted”; in assay [3] (listed as N-propanoyl-glucosamine) it was “firmer, smooth, plump, minimally wrinkled when lifted”. In addition, the “increase in skin thickness” value in assay [3] (left forearm, person, after 4 weeks) is recorded as 8%; in assay [3] (left forearm, person, after 5 weeks) it was 19%; in assay [3] (left forearm, person, after 6 weeks), 23%; in assay [3] (left forearm, person, after 8 weeks), 33%; in assay [3] (left forearm, person, after 9 weeks) it was 28%; in assay [3] (left forearm, subject with photoaging skin, 8 weeks), 33%. The “increase in skin thickness” value in assay [3] (right forearm, person, after 4 weeks) is given as 13%; in assay [3] (right forearm, person, after 6 weeks), 27%.
